In US6555533B2, “Use of certain substituted caprolactams in treating tumors” (Novartis AG, priority 1998, dated 2003):
Where two headings read alike, the source gives them in different places. Marks after values point to notes of the source that are not given here.

Columns and labels:
HCT-116 colon carcinoma = assay: Anchorage Dependent Growth Monolayer Assay (ADGMA), HCT-116; assay type: cell-based, human; conditions: Homo sapiens, HCT-116, 72 h; 3-day exposure, MTS readout; read-out: IC50 (average±S.D.) HCT-116
Procedure: (§1) As indicated above, all of the compounds of formula I, and their corresponding pharmaceutically acceptable acid addition salts, are anti-tumor agents and are, therefore, useful in inhibiting the growth of various lymphomas, sarcomas, carcinomas, myelomas, and leukemia cell lines.
(§2) The ADGMA compares the number of viable cells following a 3-day exposure to a test compound relative to a number of cells present at the time the test compound was added. […] The absorbance at 490 nm (A490) of the formazan derivative is proportional to the number of viable cells. The IC50 for a test compound is the concentration of compound required to reduce the final cell number to 50% of the final control cell number. If cell proliferation is inhibited, the assay further defines compounds as cytostatic (cell number after 3-day compound incubation >cell number at time of compound addition) or cytotoxic (cell number after 3-day compound incubation <cell number at time of compound addition).
(§3) A549, HCT-116 and PC-3 cells were maintained in RPMI 1640 containing 5% FBS, […], 1 nM β-estradiol, 1 nM testosterone, 100 units/mL penicillin and 100 ug/mL streptomycin.
(§4) Cell lines are trypsinized and counted using a Coulter counter to determine plating densities. Cells are then plated in their respective maintenance media (100 μL/well) in 96 well plates at the following densities: MDA-MB-435, 3,000 cells/well; A549 and HCT-116, 700 cells/well; are PC-3, 2500 cells/well. The number of cells plates as determined in preliminary experiments, results in cell densities of 75-90% of confluency by 4 days after plating. Initial cell densities, assayed one day after plating, are roughly 0.15-0.20 absorbance units greater than the media blank. Ninety-six well plates are seeded on day 0 and the test compounds are added on day 1. A control plate is created for each cell line that receives media only in row A and cells in row B. One day following plating, test compounds are added (in a final volume of 100 μL) to the test plates. Control plates receive 10 μL MTS mixture (prepared fresh on day of addition to cell plates at a ratio of 10 μL of a 0.92 mg/mL solution of PMS to a 190 μL of a 2 mg/mL solution of MTS) and 100 μL media. A490 of control plates is read 4 h after MTS addition to determine initial cell density values for each cell line. Three days after addition of test compound, 10 μL/well of MTS mixture is added to the test plates and A490 is read 4 h later. A490 values for wells containing cells are corrected for media absorbance, then normalized to initial density readings to determine percent net growth. IC50 values are determined from graphs of percent net growth as a function of compound concentration. Percent net growth is calculated as (Cell+Drug A490−Initial A490/Cell+Drug Vehicle A490−Initial A490).

PC-3 tumor xenografts = assay: PC-3 prostate carcinoma xenograft model; assay type: in vivo, athymic (nu/nu) mice
[1] = test system: MDA-MB-435 breast carcinoma; assay: Anchorage Dependent Growth Monolayer Assay (ADGMA), MDA-MB-435; assay type: cell-based, human; conditions: Homo sapiens, MDA-MB-435, 72 h; 3-day exposure, MTS readout; read-out: IC50 (average±S.D.) MDA-MB-435
Procedure: as §1, §2
The MDA-MB-435 breast carcinoma line was obtained from the American Type Culture Collection (ATCC) and used between passages 4-20 following thawing. MDA-MB-435 breast carcinoma was maintained and plated in DME/F12 medium containing 10% fetal bovine serum, 15 mM HEPES (pH=7.4), 100 units/mL penicillin, and 100 μg/mL streptomycin.
as §4

A549 tumor xenografts = test system: A549 tumor xenografts
Description: Utilizing this model, one can measure the ability of test compounds to inhibit the growth of human tumor xenografts growing subcutaneously (s.c.) in athymic nude mice. The histologic tumor types employed were MDA-MB-435 breast, A549 non-small cell lung, HCT-116 colon and PC-3 prostate carcinomas.
A549 non-small cell lung carcinoma xenograft model: Briefly, 10 million cells were implanted s.c. into the right flank of athymic (nu/nu) mice, and were allowed to grow until a mass of approximately 120 mm^3 was established. The test compounds are administered three times per week intravenously (i.v.) for three weeks in 5% dextrose, 10%DMSO in water. The test compounds are administered in dose-response fashion in order to evaluate and document the full potential range of activity (efficacy and toxicity) for a given compound. Positive controls are carried out with mitomycin C administered 3 times per week intraperitioneally (i.p.).
Toxicity was monitored by recording average group body weights twice weekly, and by daily observation of general health. Efficacy was monitored by taking measurements of tumor length, width, and depth weekly using digital calipers coupled to automated data collectors. Mean tumor volume (MTV) at initiation of therapy was subtracted from final MTV in order to express the actual tumor growth during treatment (ΔMTV). Anti-tumor activity was expressed as %T/C (ΔMTV of treated group÷ΔMTV of control group×100). Regressions were calculated using the formula: (T/T0−1)×100%, where T is the tumor volume for the treatment group at the end of the experiment, and T0 is the tumor volume at the beginning of the experiment. Statistical significance was evaluated using a one-tailed Student's t-test (p<0.05).

[2] = test system: A549 non-small cell lung carcinoma; assay: Anchorage Dependent Growth Monolayer Assay (ADGMA), A549; assay type: cell-based, human; conditions: Homo sapiens, A549, 72 h; 3-day exposure, MTS readout; read-out: IC50 (average±S.D.) A549
Procedure: as §1, §2, §3, §4

PC-3 prostate carcinoma = assay: Anchorage Dependent Growth Monolayer Assay (ADGMA), PC-3; assay type: cell-based, human; conditions: Homo sapiens, 72 h; 3-day exposure, MTS readout; read-out: IC50 (average±S.D.) PC-3
Procedure: as §1, §2, §3, §4

HCT-116 tumor xenografts = assay: HCT-116 colon carcinoma xenograft model; assay type: in vivo, athymic (nu/nu) mice
Procedure: Positive controls are carried out with 5-fluorouracil administered 1 time per week i.v.

[3] = test system: MDA-MB-435 tumor xenografts; assay: MDA-MB-435 breast carcinoma xenograft model; assay type: in vivo, athymic (nu/nu) mice
Procedure: Positive controls are carried out with doxorubicin administered 3 times per week i.v.
The following results were obtained for compounds of Ex.1-Ex.12 tested against MDA-MB-435 tumor xenografts 3×/week for 3 weeks: […]

[4] = 10 μmol/kg i.v. 3×/week for 3 weeks
[5] = 33 μmol/kg i.v. 3×/week for 3 weeks
[6] = 100 μmol/kg i.v. 3×/week for 3 weeks
[7] = 2 mg/kg i.v. 3 times per week (positive control)

| SMILES | IC50 (HCT-116 colon carcinoma) [nM] | IC50 [1] [nM] | % T/C (A549 tumor xenografts; [5]) | Dead/Total (A549 tumor xenografts; [5]) | Δ MTV (A549 tumor xenografts; [5]) [mm^3] | Dead/Total (A549 tumor xenografts; [6]) | Δ MTV (A549 tumor xenografts; [6]) [mm^3] | IC50 [2] [nM] | IC50 (PC-3 prostate carcinoma) [nM] | % T/C (HCT-116 tumor xenografts; [4]) | Dead/Total (HCT-116 tumor xenografts; [4]) | Δ MTV (HCT-116 tumor xenografts; [4]) [mm^3] | % T/C (HCT-116 tumor xenografts; [5]) | Dead/Total (HCT-116 tumor xenografts; [5]) | Δ MTV (HCT-116 tumor xenografts; [5]) [mm^3] | % T/C (HCT-116 tumor xenografts; [6]) | Dead/Total (HCT-116 tumor xenografts; [6]) | Δ MTV (HCT-116 tumor xenografts; [6]) [mm^3] | % T/C [3, 4] | Dead/Total [3, 4] | also measured |
| --- | --- | --- | --- | --- | --- | --- | --- | --- | --- | --- | --- | --- | --- | --- | --- | --- | --- | --- | --- | --- | --- |
| CO[C@@H](C(=O)N[C@H]1CC[C@@H](OC(=O)C2CCCCC2)CNC1=O)[C@H](O)[C@@H](O)[C@H](O)/C=C/C(C)(C)C [Ex. 1, (2R, 3R, 4S, 5R, 6E)-3,4,5-Trihydroxy-2-methoxy-8,8-dimethyl-N-[(3S, 6R)-hexahydro-2-oxo-6-(cyclohexylcarbonyl)oxy-2H-azepin-3-yl]non-6-enamide] | 41 ± 3 | 41 ± 26 | 38% | 0/8 | 29 | 1/8 | 11 | 78 ± 38 | 39 ± 13 | 89% | 0/8 | 360 | 35* % | 0/8 | 142 | 10* % | 0/8 | 42 | 61* % | 0/8 | % T/C (PC-3 tumor xenografts; [4]): 87%; Dead/Total (PC-3 tumor xenografts; [4]): 0/7; Δ MTV (PC-3 tumor xenografts; [4]): 1931 mm^3; % T/C (PC-3 tumor xenografts; [5]): 32%; Dead/Total (PC-3 tumor xenografts; [5]): 0/8; Δ MTV (PC-3 tumor xenografts; [5]): 718 mm^3; % T/C (PC-3 tumor xenografts; [6]): 8* %; Dead/Total (PC-3 tumor xenografts; [6]): 1/8; Δ MTV (PC-3 tumor xenografts; [6]): 185 mm^3; % T/C (A549 tumor xenografts; [4]): 42%; Dead/Total (A549 tumor xenografts; [4]): 0/8; Δ MTV (A549 tumor xenografts; [4]): 32 mm^3; % T/C (A549 tumor xenografts; [6]): 14* %; % T/C [3, 5]: 24* %; Dead/Total [3, 5]: 0/8; % regression [3, 6]: 29 regression* %; Dead/Total [3, 6]: 0/8; Δ MTV [3, 6]: −11 mm^3 |
| CO[C@@H](C(=O)N[C@H]1CC[C@@H](OC(=O)CCc2ccccc2)CNC1=O)[C@H](O)[C@@H](O)[C@H](O)/C=C/C(C)(C)C [Ex. 4, (2R, 3R, 4S, 5R, 6E)-3,4,5-Trihydroxy-2-methoxy-8,8-dimethyl-N-[(3S, 6R)-hexahydro-2-oxo-6-(1-oxo-3-phenylpropoxy)-2H-azepin-3-yl]non-6-enamide] | 7 ± 3 | 12 ± 14 | 17* % | 0/8 | 13 | 1/8 | −10 | 20 ± 9 | 7 ± 4 | 70* % | 0/8 | 280 | 22* % | 0/8 | 87 | 11* % | 1/8 | 44 | 53* % | 0/8 | % T/C (PC-3 tumor xenografts; [4]): 77%; Dead/Total (PC-3 tumor xenografts; [4]): 0/8; Δ MTV (PC-3 tumor xenografts; [4]): 1722 mm^3; % T/C (PC-3 tumor xenografts; [5]): 29%; Dead/Total (PC-3 tumor xenografts; [5]): 0/8; Δ MTV (PC-3 tumor xenografts; [5]): 638 mm^3; % T/C (PC-3 tumor xenografts; [6]): 4* %; Dead/Total (PC-3 tumor xenografts; [6]): 0/8; Δ MTV (PC-3 tumor xenografts; [6]): 100 mm^3; % regression (A549 tumor xenografts; [6]): 22 regression* %; % T/C [3, 5]: 12* %; Dead/Total [3, 5]: 0/8; % regression [3, 6]: 58 regression* %; Dead/Total [3, 6]: 0/8; Δ MTV [3, 6]: −23 mm^3 |
| CO[C@@H](C(=O)N[C@H]1CC[C@@H](OC(=O)CCc2cccnc2)CNC1=O)[C@H](O)[C@@H](O)[C@H](O)/C=C/C(C)(C)C [Ex. 5, (2R, 3R, 4S, 5R, 6E)-3,4,5-Trihydroxy-2-methoxy-8,8-dimethyl-N-[(3S, 6R)-hexahydro-2-oxo-6-(1-oxo-3-[3-pyridyl]propoxy)-2H-azepin-3-yl]non-6-enamide] | 464 ± 142 |  | 46% | 0/8 | 35 | 0/8 | 18 | 1040 ± 758 | 348 ± 26 | 93% | 0/8 | 376 | 67* % | 0/8 | 270 | 28* % | 0/8 | 111 | 92% | 0/8 | % T/C (A549 tumor xenografts; [4]): 50%; Dead/Total (A549 tumor xenografts; [4]): 0/8; Δ MTV (A549 tumor xenografts; [4]): 38 mm^3; % T/C (A549 tumor xenografts; [6]): 24* %; % T/C [3, 5]: 44* %; Dead/Total [3, 5]: 0/8 |
| COc1cccc2c1C(=O)c1c(O)c3c(c(O)c1C2=O)C[C@@](O)(C(=O)CO)C[C@@H]3O[C@H]1C[C@H](N)[C@H](O)[C@H](C)O1 [doxorubicin, reference compound] | 39 ± 6 | 399 ± 314 |  |  |  |  |  | 504 ± 320 | 327 ± 123 |  |  |  |  |  |  |  |  |  |  |  | % T/C [3, 7]: 42* %; Dead/Total [3, 7]: 0/8 |
